pIC50: −log10 of the molar value. Where two headings read alike, the source gives them in different places.
Tests used:
[1] = system: PHA-induced IL-2 production in PBMCs; assay: PHA-induced IL-2 production in PBMCs from healthy male smokers (no IL-2/IL-4 added), ELISA; format: cell-based, human; settings: for levels of IL-2 in PBMCs: FIG. 1; for % inhibition of PHA stimulation of IL-2: Table 2
Description: PBMCs were isolated from human blood buffy coats provided by a regional blood center. Random buffy coat cells from male donors were a by-product of blood processed for clinical use and no details (i.e., personal identification and background) were provided except for tobacco use. […] PBMCs were separated using a porous high density polyethylene barrier (HISTOPAQUE from GEHealthcare Bio-Sciences AB (US). After centrifugation of blood samples in each tube (35 minutes at 800×g at room temperature, or RT), PBMCs were collected and washed twice with Hank's buffered saline solution (HBSS). PBMCs were resuspended in RPMI-1640 medium containing 10% fetal calf serum (FCS) and 15 mM glutamine and cells were counted and plated.
(§1) PBMCs (2×10^6) were incubated with or without IL-2 (13 ng/ml) and IL-4 (6.5 ng/ml) for 48 hours in RPMI-1640 medium containing 10% FCS and 2 mM glutamine. […] IL-2 and IL-4 stimulated PBMCs were also plated at a concentration of 10^6 cells/ml in 96-well plates ready for PHA (15 μg/mL, 24 hours) stimulation of cytokine release and detection by ELISA.
Serial dilutions of standards and PBMCs' supernatants were measured by enzyme linked immunosorbent assay to determine IL-2 at baseline and its levels after 17HPC, P4 and MAP treatments. Optical density was measured at 450 nm and corrected with 550 nm. The concentration of TL-2 was calculated using the standard curve and taking into account the supernatant dilution used. Detection limit for IL-2 is 4.0 pg/ml.
Data are expressed as mean±SD. The efficacies of the drug treatments were analyzed by paired t-test. One-way analysis of variance was used to compare three or more matched groups and 95% CI was performed to present groups differences. All graphs indicate mean values of results or % inhibition of PHA-stimulated IL-2. IC50 values were calculated by using a sigmoidal model (BioDataFit). A p value <0.05 was considered statistically significant.
(§2) IL-2 levels were quantified using ELISA.
IL-2 levels were quantified using ELISA. IC50 values were calculated by using a sigmoidal model (BioDataFit).
as §2, §2, §2

[2] = system: PHA-induced IL-2 release in IL-2 and IL-4 treated (steroid resistant) PBMCs; assay: IL-2/IL-4 induced steroid resistance model in PBMCs: dexamethasone inhibition of PHA-induced IL-2 release; format: cell-based, human
Description: J Immunol 2009; 183; 164-171). […] Following PBMCs stimulation with mitogen phytohaemagglutinin (PHA), there is a strong correlation between cytokine secretion levels and steroid resistance as well as steroid sensitivity in vitro. Addition of IL-2, IL-4 and TNF-reduce steroid sensitivity.
as §1
IL-2/4 induced steroid resistance in PBMCs, a well-recognized study model, was used to evaluate potential modifiers of steroid resistance and sensitivity. PBMCs from healthy smokers were collected. Corticosteroid insensitivity or resistance was induced by adding IL-2 and IL-4 in peripheral blood mononuclear cells (PBMCs) from healthy male smokers (n=˜11). […] IL-2 levels were quantified using ELISA.
J Immunol 2009; 183; 164-171).
as §2

[3] = system: patients with severe premenstrual exacerbations of asthma; settings: intramuscular, added to regimen incl. corticosteroids; 3 cases; cited from earlier work
[4] = system: mitogen-activated protein kinase; settings: rat uterine smooth muscle; cited from earlier work
[5] = system: females with severe asthma; settings: sublingual; sixteen patients; cited from earlier work
[6] = Example 8, Dexamethasone only 10E−6M
[7] = Example 8, Dexamethasone only 10E−8M
[8] = Example 8, Dexamethasone only 10E−11M
[9] = Homo sapiens, PBMC, read-out: % inhibition on PHA-induced IL-2 production
[10] = Homo sapiens, PBMC, read-out: % inhibition of PHA-induced IL-2 production
[11] = Homo sapiens, PBMC, read-out: IL-2 inhibition
[12] = MPA 10^−5M + Dexamethasone 10E−8M
[13] = MPA 10^−8M + Dexamethasone 10E−8M
[14] = MPA 10^−8M + Dexamethasone 10E−11M
[15] = MPA 10^−10M + Dexamethasone 10E−8M
[16] = P4 10^−5M + Dexamethasone 10E−8M
[17] = P4 10^−8M + Dexamethasone 10E−8M
[18] = P4 10^−8M + Dexamethasone 10E−11M
[19] = P4 10^−10M + Dexamethasone 10E−8M

**Q.** Which “% inhibition of PHA-induced IL-2 production” value [1, 6] does the source give for C[C@@H]1C[C@H]2[C@@H]3CCC4=CC(=O)C=C[C@]4(C)[C@@]3(F)[C@@H](O)C[C@]2(C)[C@@]1(O)C(=O)CO [Dexamethasone] here?
**A.** The value was “(86%)”.

**Q.** And the “mean IL-2” value [1, 6]?
**A.** Its value is 109.6 pg/mL.

**Q.** And the “% inhibition of PHA-induced IL-2 production” value [1, 7]?
**A.** The value was 67%.

**Q.** What about the “mean IL-2” value [1, 7] of the same compound?
**A.** Its value is 251.6 pg/mL.

**Q.** What about the “% inhibition of PHA-induced IL-2 production” value [1, 8] of the same compound?
**A.** The value was “(72%)”.

**Q.** And the “mean IL-2” value [1, 8]?
**A.** The value was 216.1 pg/mL.

**Q.** And the “levels of IL-2 in PBMCs” value ([1]; dex 10^−8M, PHA, n=17, mean±SD)?
**A.** Its value is 293 ± 338 pg/mL.

**Q.** What about the “levels of IL-2 in PBMCs” value ([1]; dexamethasone 10^−6M, PHA, n=17, mean±SD) of the same compound?
**A.** Its value is 144 ± 157 pg/mL.

**Q.** And the “levels of IL-2 in PBMCs” value ([1]; dexamethasone 10^−10 M, PHA, n=14, mean±SD)?
**A.** The value was 287 ± 313 pg/mL.

**Q.** And the “levels of IL-2 in PBMCs” value ([1]; dexamethasone 10^−12 M, PHA, n=11, mean±SD)?
**A.** The value was 371 ± 447 pg/mL.

**Q.** What about the inhibition at 1 µM ([1]; Homo sapiens, PBMC) of the same compound?
**A.** Its inhibition at 1 µM is 87%.

**Q.** And the pIC50 ([1]; Homo sapiens, PBMC, Dexamethasone+17HPC at lower 17HPC concentrations, read-out: Dexamethasone-IC50)?
**A.** The pIC50 was 10.20 to 12.00.

**Q.** And the pIC50 ([1]; Homo sapiens, PBMC, read-out: Dexamethasone IC50, Dexamethasone only, sigmoidal model, N=14)?
**A.** The pIC50 was 7.50.

**Q.** What about the pIC50 ([1]; Homo sapiens, PBMC, read-out: Dexamethasone IC50, with 17HPC 10^−5M add-on) of the same compound?
**A.** Its pIC50 is 7.60.

**Q.** What about the pIC50 ([1]; Homo sapiens, PBMC, read-out: Dexamethasone IC50, with 17HPC 10^−10M add-on) of the same compound?
**A.** Its pIC50 is 10.20.

**Q.** And the inhibition at 0.0001 µM [1, 9]?
**A.** The inhibition at 0.0001 µM was 52%.

**Q.** What about the “mean IL-2” value ([1]; Table 1, Dexamethasone only 10^−6M) of the same compound?
**A.** Its value is 160.6 pg/mL.

**Q.** And the “mean IL-2” value ([1]; Table 1, Dexamethasone only 10^−8M)?
**A.** The value was 398.1 pg/mL.

**Q.** What about the “mean IL-2” value ([1]; Table 1, Dexamethasone only 10^−10M) of the same compound?
**A.** The value was 312.7 pg/mL.

**Q.** And the “mean IL-2” value ([1]; Table 1, Dexamethasone only 10^−12M)?
**A.** The value was 371.7 pg/mL.

**Q.** And the “% inhibition of PHA stimulation of IL-2” value ([1]; Dexamethasone only 10^−6 M (Imax))?
**A.** Its value is 78%.

**Q.** And the “% inhibition of PHA stimulation of IL-2” value ([1]; Dexamethasone only 10^−8 M)?
**A.** Its value is 46%.

**Q.** And the “% inhibition of PHA stimulation of IL-2” value ([1]; Dexamethasone only 10^−10 M)?
**A.** Its value is 57%.

**Q.** And the “% inhibition of PHA stimulation of IL-2” value ([1]; Dexamethasone only 10^−12 M)?
**A.** The value was 49%.

**Q.** And the “effect in basal IL-2 level” value ([1]; no PHA stimulation, data not shown)?
**A.** The value was “no significant effect”.

**Q.** And the “% inhibition on PHA-induced IL-2 production” value ([2]; FIG. 2, Dexamethasone 10^−10 M, with addition of IL-2 and IL-4)?
**A.** The value was “no inhibition”.

**Q.** And the “PHA-induced IL-2 level” value ([2]; FIG. 5, Dexamethasone 10^−10 M without 17HPC)?
**A.** The value was 2364 pg/mL.

**Q.** And the inhibition at 1 µM [2, 9]?
**A.** The inhibition at 1 µM was 21%.

**Q.** With CC(=O)O[C@]1(C(C)=O)CC[C@H]2[C@@H]3C[C@H](C)C4=CC(=O)CC[C@]4(C)[C@H]3CC[C@@]21C [MPA, MEDROXYPROGESTERONE ACETATE] as the compound, how does the inhibition at 0.01 µM ([1]; Homo sapiens, PBMC) read?
**A.** The inhibition at 0.01 µM was 78%.

**Q.** What about the inhibition at 10 µM ([1]; Homo sapiens, PBMC) of the same compound?
**A.** The inhibition at 10 µM was 95%.

**Q.** What about the inhibition at 0.0001 µM [1, 10] of the same compound?
**A.** Its inhibition at 0.0001 µM is 73%.

**Q.** And the inhibition at 0.0001 µM [1, 11]?
**A.** Its inhibition at 0.0001 µM is at least 86%.

**Q.** And the “% inhibition of PHA-induced IL-2 production” value [1, 12]?
**A.** Its value is “(98%)”.

**Q.** And the “mean IL-2” value [1, 12]?
**A.** Its value is 12.3 pg/mL.

**Q.** What about the “mean IL-2” value ([1]; MPA 10^−5M, PHA, no Dexamethasone) of the same compound?
**A.** The value was 39.8 pg/mL.

**Q.** And the “% inhibition of PHA-induced IL-2 production” value [1, 13]?
**A.** Its value is 96%.

**Q.** What about the “mean IL-2” value [1, 13] of the same compound?
**A.** Its value is 29.2 pg/mL.

**Q.** What about the “% inhibition of PHA-induced IL-2 production” value [1, 14] of the same compound?
**A.** Its value is “(83%)”.

**Q.** And the “mean IL-2” value [1, 14]?
**A.** The value was 129.1 pg/mL.

**Q.** And the “mean IL-2” value ([1]; MPA 10^−8M, PHA, no Dexamethasone)?
**A.** The value was 166.9 pg/mL.

**Q.** And the “% inhibition of PHA-induced IL-2 production” value [1, 15]?
**A.** The value was “(94%)”.

**Q.** What about the “mean IL-2” value [1, 15] of the same compound?
**A.** Its value is 44.7 pg/mL.

**Q.** What about the “mean IL-2” value ([1]; MPA 10^−10M, PHA, no Dexamethasone) of the same compound?
**A.** Its value is 206.1 pg/mL.

**Q.** And the “improvement in corticosteroid sensitivity, responding sub-group” value ([2]; FIG. 9, Dexamethasone 10^−10 M)?
**A.** The value was “up to 58%”.

**Q.** What about the “reduction (worsening) in corticosteroid sensitivity, other sub-group” value ([2]; FIG. 9, Dexamethasone 10^−10 M) of the same compound?
**A.** The value was “up to 88%”.

**Q.** Which results are given for CC(=O)[C@H]1CC[C@H]2[C@@H]3CCC4=CC(=O)CC[C@]4(C)[C@H]3CC[C@]12C [P4, Progesterone]?
**A.** effect on premenstrual fall in peak flow rate [3]: eliminated the premenstrual dips in peak flow; effect on MAPK tyrosine phosphorylation and membrane-associated MAPK activity [4]: increased MAPK tyrosine phosphorylation and membrane-associated MAPK activity; patients with an increase in both FEV1 and FVC [5]: 50%; patients with an increase of 27% or greater in PEF [5]: 50%; patients with bronchodilator effect (greater than 12% increase) in either FEV1 or FVC [5]: 75%; inhibition at 0.01 µM ([1]; Homo sapiens, PBMC): 36%; inhibition at 10 µM ([1]; Homo sapiens, PBMC): 85%; inhibition at 0.0001 µM [1, 10]: 34%; inhibition at 0.0001 µM [1, 11]: ≥ 86%; % inhibition of PHA-induced IL-2 production [1, 16]: (89%); mean IL-2 [1, 16]: 81.2 pg/mL; mean IL-2 ([1]; P4 10^−5M, PHA, no Dexamethasone): 113.8 pg/mL; % inhibition of PHA-induced IL-2 production [1, 17]: (88%); mean IL-2 [1, 17]: 91.4 pg/mL; % inhibition of PHA-induced IL-2 production [1, 18]: (87%); mean IL-2 [1, 18]: 100.8 pg/mL; mean IL-2 ([1]; P4 10^−8M, PHA, no Dexamethasone): 486.2 pg/mL; % inhibition of PHA-induced IL-2 production [1, 19]: (92%); mean IL-2 [1, 19]: 59.6 pg/mL; mean IL-2 ([1]; P4 10^−10M, PHA, no Dexamethasone): 506.9 pg/mL; subjects with more than 10% improvement in maximal Dexamethasone inhibition ([2]; FIGS. 7-8, Dexamethasone 10^−10 M): 6 out of 8

**Q.** Which “effect on MAPK tyrosine phosphorylation and membrane-associated MAPK activity” value [4] does the source give for estradiol-17 beta [estrogen] here?
**A.** The value was “increased MAPK tyrosine phosphorylation and membrane-associated MAPK activity”.

— patent US20110262502A1, “PULMONARY DELIVERY OF 17-HYDROXYPROGESTERONE CAPROATE (17-HPC)” (Prairie Pharmaceuticals LLC, priority 2010, published 2011)
